Reference: patent publication US20040116529A1, “Anticancer and chemopreventative agents and methods of use thereof” (priority 2001, published 2004)

Tests used:
[1] = system: prostate specific antigen (PSA); assay: Intracellular PSA levels in LNCaP cells exposed to DBM (Western analysis); assay type: cell-based, human
Text: (§1) LNCaP cells cultured in the presence of androgens secrete prostate specific antigen (PSA) into the culture medium.

[2] = system: prostate specific antigen (PSA); assay: Extracellular PSA secreted by LNCaP cells exposed to DBM (ELISA analysis); assay type: cell-based, human; settings: baseline about 700
Text: as §1

[3] = system: TRAMP (TRansgenic Adenocarcinoma of Mouse Prostate) mice; assay: Prostate carcinogenesis in TRAMP mice fed 1% DBM diet; assay type: in vivo
Text: In other words, development of premalignant prostatic intraepithelial (PIN) neoplasia and primary adenocarcinoma of the prostate of TRAMP mice is similar to the development of prostate cancer in humans. TRAMP mice are discussed in greater detail in U.S. Pat. No. 5,907,087, which is incorporated herein by reference.
(§2) Two groups of TRAMP mice were studied, where one is a control cohort and the other is the cohort fed DBM.

[4] = Serum DBM levels in TRAMP mice fed 1% DBM diet; assay type: in vivo, mouse
Text: as §2

[5] = system: human prostate cancer cells; assay: Proliferation of human prostate cancer cells in vitro; assay type: cell-based

In the case of `O=C(CC(=O)c1ccccc1)c1ccccc1` [DBM, dibenzoylmethane], the “DBM concentration at which intracellular PSA is not readily detectable by Western analysis” value [1] is reported as at least 10 µM, the PSA levels ([1]; DBM at 10, 25 and 50 micromolar) is reported as “dose-dependent down regulation” and the “Extracellular PSA” value ([2]; 25 micromolar DBM) is reported as about 150 nanograms per milliliter. The “Extracellular PSA” value ([2]; 50 micromolar DBM) was about 100 nanograms per milliliter, the “Extracellular PSA” value ([2]; at micromolar DBM (concentration not given)) was “approximately 200 nanograms per milliliter” and the “cancer and high-grade prostatic intraepithelial neoplasia versus control cohort” value ([3]; 1% DBM diet, at 18 weeks) was “significantly less cancer and high-grade prostatic intraepithelial neoplasia”. For the same compound, the “mice developing either adenocarcinoma or high grade PIN” value ([3]; diet of 1% DBM (weight/weight) in AIN-76A from six weeks of age, control cohort 6 of 10) was 2 of 11, the “serum levels of DBM” value ([4]; diet of 1% DBM from six weeks of age) was 1 µM and the “oral absorption from the gastrointestinal tract” value ([4]; oral DBM in diet) was “orally bioavailable”. For the same compound, the “proliferation of human prostate cancer cells in vitro” value [5] was “inhibit proliferation”.
